# Measurements: patent publication US11708344B2, “Flavone derivatives for the treatment and prophylaxis of hepatitis B virus disease” (Hoffmann-La Roche Inc., priority 2018, dated 2023)
# Legend:
# [1] = tested on: HBsAg in HBV-infected PHH; assay: Cryopreserved primary human hepatocytes (PHH) HBV infection assay, extracellular HBsAg (CLIA); type: cell-based; details: Hepatitis B virus, Hepatocyte, 216 h, read-out: HBsAg IC50, Cryopreserved PHH infected with HBV, 9 days post-compound treatment, extracellular HBsAg
# Protocol: This assay is used to confirm the anti-HBV effect of the compounds in HBV PHH infection assay. Cryopreserved PHH (BioreclamationIVT, Lot YJM) was thawed at 37° C. and gently transferred into pre-warmed InVitroGRO HT medium (BioreclamationIVT, Cat. S03317). The mixture was centrifuged at 70 relative centrifugal force (RCF) for 3 minutes at RT, and the supernatant was discarded. Pre-warmed InVitroGRO CP medium (BioreclamationIVT, Cat #S03316) was added to the cell pellet to gently re-suspend cells. The cells were seeded at the density of 5.8×10^4 cells per well to collagen I coated 96-well plate (Gibco, Cat. A1142803) with the InVitroGRO CP medium. All plates were incubated at 37° C. with 5% CO2 and 85% humidity.
# At 20 hours after plating, the medium was changed to PHH culture medium (Dulbecco's Modified Eagle Medium (DMEM)/F12 (1:1) (Gibco, Cat. 11320-033), 10% fetal bovine semm (Gibco Cat. 10099141), 100 U/mL penicillin, 100 μg/mL streptomycin (Gibco, Cat. 151401-122), […] (Invitrogen Cat. PHG0311L), 20 ng/mL dexamethasone (Sigma, Cat. D4902) and 250 ng/mL human recombinant insulin (Gibco, Cat. 12585-014)). And the cells were incubated at 37° C. with 5% CO2 and 85% humidity for 4 hours. The medium was then changed to pre-warmed PHH culture medium containing 4% polyethylene glycol (PEG) MW8000 (Sigma, Cat. P1458-50 ML) and 1% DMSO (Sigma, Cat. D2650). 5.8×10^6 genomic equivalents of HBV were added into the medium.
# At 24 hours post-infection, the cells were gently washed with PBS and refreshed with PHH culture medium supplemented with 1% DMSO, and 0.25 mg/mL Matrix gel (Corning, Cat. 356237) at 200 μL per well. All plates were immediately placed in at 37° C. CO2 incubator.
# 24 hours later, serial dilutions of compounds made with DMSO were further diluted with the same culture medium (PHH culture medium supplemented with 1% DMSO and 0.25 mg/mL Matrix gel as described above) before they were added to the cells to reach desired final compound concentrations and 1% DMSO concentration. The medium containing the compounds were refreshed every three days.
# At 9 days post-compound treatment, extracellular HBsAg level were measured with Chemiluminescence Immuno Assay (CLIA) kit (Autobio, HBsAg Quantitative CLIA). Extracellular HBV DNA was extracted by MagNA Pure 96 system (Roche) and then determined by quantitative PCR with the following primers and probe: […]
# HBsAg IC50 and HBV DNA IC50 values were derived from the dose-response curve using 4 parameter logistic curve fit method. The compounds of formula (I) have HBsAg IC50<20 μM, particularly <1 μM; and HBV DNA IC50<50 μM.
# [2] = tested on: HBeAg (surrogate marker for cccDNA) in HepDES19 cells; assay: Engineered HepDES19 primary screen assay (HBeAg ELISA); type: cell-based, HBV; details: Hepatitis B virus, HepDES19, 120 h, read-out: IC50 (HBeAg level, HepDES19 primary screen assay), HepDES19 cells, 5 days compound incubation, HBeAg ELISA
# How it was run: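 IC50 values come from 4-parameter logistic fits of HBeAg ELISA signal, the cccDNA surrogate, with CCK-8 run in parallel for viability. Compounds at half-log dilutions with 1% DMSO were applied for 5 days at 37 °C to HepDES19 cells previously cultured 8 days without Tet.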
# [3] = Human microsome stability assay; type: in vitro ADME; details: human liver microsomes, 1 μM test compound, 0.5 mg/mL microsomal protein, 37° C., pH 7.4, 0-30 minutes
# How it was run: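 Parent compound remaining was measured by LC-MS/MS at 0, 3, 6, 9, 15 and 30 min, following ACN quench. Reactions held 1 μM compound and 0.5 mg/mL human liver microsomal protein in pH 7.4 phosphate buffer at 37 °C, started by NADPH regeneration (1 mM NADP, 1 mM MgCl2); controls lacked NADPH.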
Compound,IC50 [1] [µM],IC50 [2] [nM],Clearance of Human microsome [3] [mL/min/kg]
"Cc1ccc(-c2cc(=O)c3cccc(Cl)c3o2)c(O[C@H]2C[C@@H](C(=O)NS(C)(=O)=O)C2)c1 [Example B051-A, Cis-3-[2-(8-chloro-4-oxo-chromen-2-yl)-5-methyl-phenoxy]-N-methylsulfonyl-cyclobutanecarboxamide]",3.21,6180,6.15
"Cc1ccc(-c2cc(=O)c3cccc(Cl)c3o2)c(OCC(=O)O)c1 [Example A049, 2-[2-(8-chloro-4-oxo-chromen-2-yl)-5-methyl-phenoxy]acetic acid]",1.26,87.2,6.15
"CCCOc1cc(OCCO[C@H]2C[C@@H](C(=O)O)C2)c(-c2cc(=O)c3cccc(Cl)c3o2)cc1OC [Example C077, Cis-3-[2-[2-(8-chloro-4-oxo-chromen-2-yl)-4-methoxy-5-propoxy-phenoxy]ethoxy]cyclobutanecarboxylic acid]",9.37,3210,6.15
"COc1cc(-c2cc(=O)c3cccc(Cl)c3o2)c(OCCC(=O)O)cc1C(F)(F)F [Example A043, 3-[2-(8-chloro-4-oxo-chromen-2-yl)-4-methoxy-5-(trifluoromethyl)phenoxy]propanoic acid]",6.69,2250,6.15
"O=C(O)C1CCC(Oc2cc(Br)ccc2-c2cc(=O)c3cccc(Cl)c3o2)CC1 (stereo not drawn) [Example B010, 4-[5-bromo-2-(8-chloro-4-oxo-chromen-2-yl)phenoxy]cyclohexanecarboxylic acid]",7.08,2760,6.15
"O=C(O)COCCOc1cc(Br)ccc1-c1cc(=O)c2cccc(Cl)c2o1 [Example C006, 2-[2-[5-bromo-2-(8-chloro-4-oxo-chromen-2-yl)phenoxy]ethoxy]acetic acid]",3.74,1260,6.15
"COc1cc(-c2cc(=O)c3cccc(Cl)c3o2)c(OCCO[C@H]2C[C@@H](C(=O)O)C2)cc1Br [Example C073, Cis-3-[2-[5-bromo-2-(8-chloro-4-oxo-chromen-2-yl)-4-methoxy-phenoxy]ethoxy]cyclobutanecarboxylic acid]",7.56,920,7.85
"COc1cc(-c2cc(=O)c3cccc(Cl)c3o2)c(OCCC(=O)O)cc1Cl [Example A008, 3-[5-chloro-2-(8-chloro-4-oxo-chromen-2-yl)-4-methoxy-phenoxy]propanoic acid]",0.948,2260,6.15
"CS(=O)(=O)NC(=O)[C@H]1C[C@@H](Oc2cc(OC(F)(F)F)ccc2-c2cc(=O)c3cccc(Cl)c3o2)C1 [Example B047-A, Cis-3-[2-(8-chloro-4-oxo-chromen-2-yl)-5-(trifluoromethoxy)phenoxy]-N-methylsulfonyl-cyclobutanecarboxamide]",5.54,1960,6.15
"Cc1ccc(-c2cc(=O)c3cccc(Br)c3o2)c(OCCC(=O)O)c1 [Example A024, 3-[2-(8-bromo-4-oxo-chromen-2-yl)-5-methyl-phenoxy]propanoic acid]",4.09,570,6.61
"CCOc1cc(-c2cc(=O)c3cccc(Cl)c3o2)c(OCCO[C@H]2C[C@@H](C(=O)O)C2)cc1OC [Example C084, cis-3-[2-[2-(8-chloro-4-oxo-chromen-2-yl)-4-ethoxy-5-methoxy-phenoxy]ethoxy]cyclobutanecarboxylic acid]",5.21,15100,6.15
"O=C(O)COCC(O)COc1cc(Br)ccc1-c1cc(=O)c2cccc(Cl)c2o1 (stereo not drawn) [Example C113, 2-[3-[5-bromo-2-(8-chloro-4-oxo-chromen-2-yl)phenoxy]-2-hydroxy-propoxy]acetic acid]",8.89,1280,6.15
"CCOc1cc(OCCO[C@H]2C[C@@H](C(=O)O)C2)c(-c2cc(=O)c3cccc(Cl)c3o2)cc1OC [Example C078, Cis-3-[2-[2-(8-chloro-4-oxo-chromen-2-yl)-5-ethoxy-4-methoxy-phenoxy]ethoxy]cyclobutanecarboxylic acid]",6.32,15000,6.15
"O=C(CCOc1cc(C(F)(F)F)ccc1-c1cc(=O)c2cccc(Cl)c2o1)NS(=O)(=O)C1CC1 [Example A084, 3-[2-(8-chloro-4-oxo-chromen-2-yl)-5-(trifluoromethyl)phenoxy]-N-cyclopropylsulfonyl-propanamide]",1.02,1450,7.5
"Cc1ccc(-c2cc(=O)c3cccc(Cl)c3o2)c(O[C@H]2C[C@H](C(=O)NS(C)(=O)=O)C2)c1 [Example B051-B, Trans-3-[2-(8-chloro-4-oxo-chromen-2-yl)-5-methyl-phenoxy]-N-methylsulfonyl-cyclobutanecarboxamide]",5.3,9220,6.97
"O=c1cc(-c2cc3c(cc2OCCO[C@H]2C[C@H](C(=O)O)C2)OCO3)oc2c(Cl)cccc12 [Example C043-B, Trans-3-[2-[[6-(8-chloro-4-oxo-chromen-2-yl)-1,3-benzodioxo1-5-yl]oxy]ethoxy]cyclobutanecarboxylic acid]",5.2,9420,7.72
"O=c1cc(-c2ccc(Br)cc2O[C@H]2C[C@@H](C(=O)O)C2)oc2c(Cl)ccc(O)c12 [Example B036-A, Cis-3-[5-bromo-2-(8-chloro-5-hydroxy-4-oxo-chromen-2-yl)phenoxy]cyclobutanecarboxylic acid]",9.5,926,6.15
"O=C(O)CCOc1cc(C(F)(F)F)ccc1-c1cc(=O)c2cccc(Cl)c2o1 [Example A001, 3-[2-(8-chloro-4-oxo-chromen-2-yl)-5-(trifluoromethyl)phenoxy]propanoic acid]",1.19,1640,10.0
"O=c1cc(-c2ccc(F)cc2OCCO[C@H]2C[C@@H](C(=O)O)C2)oc2c(Cl)cccc12 [Example C034-A, Cis-3-[2-[2-(8-chloro-4-oxo-chromen-2-yl)-5-fluoro-phenoxy]ethoxy]cyclobutanecarboxylic acid]",4.69,526,6.15
"O=C(O)CCOc1cc(OC(F)(F)F)ccc1-c1cc(=O)c2cccc(Br)c2o1 [Example A022, 3-[2-(8-bromo-4-oxo-chromen-2-yl)-5-(trifluoromethoxy)phenoxy]propanoic acid]",0.754,983,6.15
"O=C(O)CCCOc1cc(C(F)(F)F)ccc1-c1cc(=O)c2cccc(Cl)c2o1 [Example A052, 4-[2-(8-chloro-4-oxo-chromen-2-yl)-5-(trifluoromethyl)phenoxy]butanoic acid]",6.91,213,8.01
